Laboratory results taken from paper PMC8286840, “Identifying SARS-CoV-2 antiviral compounds by screening for small molecule inhibitors of Nsp3 papain-like protease” (Biochemical Journal, 2021).
Where a name gives a salt, the structure may show the parent alone. Read-outs that look alike come from different tables or passages of the source.

Assays:
[1] = target: T1, SARS-CoV-2 PLpro (nsp3 1564–1878) (Severe acute respiratory syndrome coronavirus 2, UniProt P0DTD1); assay: biochemical; set-up: FRET-quenched peptide (Pro3) cleavage by PLpro, 10 min pre-incubation, slope over 20 min, normalised to no-compound control; conditions: low concentration screen, read-out: % of control remaining
[2] = target: T1, SARS-CoV-2 PLpro (nsp3 1564–1878); assay: biochemical; set-up: FRET-quenched peptide (Pro3) cleavage by PLpro, 10 min pre-incubation, slope over 20 min, normalised to no-compound control; conditions: high concentration screen, read-out: % of control remaining

Molecule `COC(=O)Nc1nc2cc(C(=O)c3ccc(F)cc3)ccc2[nH]1` [Flubendazole] has a remaining activity at 1.25 µM ([1]; Well no.=2128) of 101% and a remaining activity at 3.75 µM ([2]; Well no.=2128) of 103%.

For `CC(=O)OC(C)C[N+](C)(C)C` (stereo not shown) [Methacholine (chloride)], the remaining activity at 1.25 µM ([1]; Well no.=6323) was 100% and the remaining activity at 3.75 µM ([2]; Well no.=6323) was 98.1%.

`COc1cc2c(CCNC(C)=O)c[nH]c2cc1O` [6-Hydroxymelatonin] showed a remaining activity at 1.25 µM ([1]; Well no.=654) of 95.9% and a remaining activity at 3.75 µM ([2]; Well no.=654) of 96.7%.

`N[C@@H](CC(=O)O)C(=O)O` [L-Aspartic acid] was tested, and the remaining activity at 1.25 µM ([1]; Well no.=248) was 96.2%, the remaining activity at 3.75 µM ([2]; Well no.=248) was 97.3% and the remaining activity at 3.75 µM ([2]; Well no.=7683) was 106%.

With `CN(C(=O)OCC1c2ccccc2-c2ccccc21)[C@@H](Cc1ccccc1)C(=O)O` [Fmoc-N-Me-Phe-OH] the remaining activity at 1.25 µM ([1]; Well no.=7888) was 101% and the remaining activity at 3.75 µM ([2]; Well no.=7888) was 102%.

For `O=Nc1ccc2oc(=O)ccc2c1` [6-Nitroso-1,2-benzopyrone], the remaining activity at 1.25 µM ([1]; Well no.=1099) was 95.7% and the remaining activity at 3.75 µM ([2]; Well no.=1099) was 104%.

Work on `CC[C@H](C)[C@H](N)C(=O)N1CCC[C@H]1C(=O)N[C@H](C(=O)O)[C@@H](C)CC` [Ile-Pro-Ile] yielded a remaining activity at 1.25 µM ([1]; Well no.=5849) of 100% and a remaining activity at 3.75 µM ([2]; Well no.=5849) of 99.6%.

For `OC[C@H]1O[C@@H](n2cnc3c(N[C@@H]4CCOC4)ncnc32)[C@H](O)[C@@H]1O` [Tecadenoson], the remaining activity at 1.25 µM ([1]; Well no.=7966) was 96.9%, the remaining activity at 1.25 µM ([1]; Well no.=8315) was 94.2% and the remaining activity at 3.75 µM ([2]; Well no.=7966) was 96.1%. For the same molecule, the remaining activity at 3.75 µM ([2]; Well no.=8315) was 94.4%.

`c1ccc(CN(Cc2ncc[nH]2)c2ccccc2)cc1` [Antozoline hydrochloride] was tested, and the remaining activity at 1.25 µM ([1]; Well no.=108) was 101% and the remaining activity at 3.75 µM ([2]; Well no.=108) was 103%.

`C[C@H](c1ccc(F)cc1CCCC(=O)O)N(c1cc(F)ccc1F)S(=O)(=O)c1ccc(Cl)cc1` [4-[2-((1R)-1-{[(4-chlorophenyl)sulfonyl]-2,5-difluoroanilino}ethyl)-5-fluorophenyl]butanoic acid] gave a remaining activity at 1.25 µM ([1]; Well no.=5465) of 98.3% and a remaining activity at 3.75 µM ([2]; Well no.=5465) of 102%.

Molecule `O=C(O)C=Cc1cc(Br)c(Br)c(Br)c1Br` [Casein Kinase II Inhibitor III, TBCA] has a remaining activity at 1.25 µM ([1]; Well no.=2374) of 102% and a remaining activity at 3.75 µM ([2]; Well no.=2374) of 104%.

Work on `CN1CC(=O)NC1=N` [Creatinine] yielded a remaining activity at 1.25 µM ([1]; Well no.=5324) of 96.6%, a remaining activity at 1.25 µM ([1]; Well no.=6967) of 104% and a remaining activity at 3.75 µM ([2]; Well no.=5324) of 92.2%. For the same molecule, the remaining activity at 3.75 µM ([2]; Well no.=6967) was 101%.

Work on `NCCNS(=O)(=O)c1cccc2cnccc12` [H-9 dihydrochloride] yielded a remaining activity at 1.25 µM ([1]; Well no.=340) of 96.1% and a remaining activity at 3.75 µM ([2]; Well no.=340) of 100%.

`CNC(=O)c1ccccc1Sc1ccc2c(/C=C/c3ccccn3)n[nH]c2c1` [Axitinib] showed a remaining activity at 1.25 µM ([1]; Well no.=2803) of 101% and a remaining activity at 3.75 µM ([2]; Well no.=2803) of 99.1%.

For `C[C@@H]1[C@@H]2Cc3ccc(O)cc3[C@@]1(C)CCN2CC1CC1` [(+)-Cyclazocine], the remaining activity at 1.25 µM ([1]; Well no.=583) was 72.1% and the remaining activity at 3.75 µM ([2]; Well no.=583) was 98.8%.

Molecule `NS(=O)(=O)c1ccc(NC(=O)Nc2ccc(F)cc2)cc1` [U-104] has a remaining activity at 1.25 µM ([1]; Well no.=8246) of 98%, a remaining activity at 1.25 µM ([1]; Well no.=8566) of 103% and a remaining activity at 3.75 µM ([2]; Well no.=8246) of 93.1%. It also gave a remaining activity at 3.75 µM ([2]; Well no.=8566) of 103%.

`Nc1nc2c(ncn2COCCO)c(=O)[nH]1` [Acycloguanosine] gave a remaining activity at 1.25 µM ([1]; Well no.=2073) of 103% and a remaining activity at 3.75 µM ([2]; Well no.=2073) of 106%.

For `NCCCNCCS` [WR-1065 dihydrochloride], the remaining activity at 1.25 µM ([1]; Well no.=6786) was 94.6% and the remaining activity at 3.75 µM ([2]; Well no.=6786) was 94.3%.

In the case of `CCCC1O[C@@H]2C[C@H]3[C@@H]4CCC5=CC(=O)C=C[C@]5(C)[C@H]4[C@@H](O)C[C@]3(C)[C@]2(C(=O)CO)O1` (stereo partly shown) [Budesonide], the remaining activity at 1.25 µM ([1]; Well no.=81) is reported as 105%, the remaining activity at 1.25 µM ([1]; Well no.=6659) is reported as 98.6% and the remaining activity at 3.75 µM ([2]; Well no.=81) is reported as 102%. It also gave a remaining activity at 3.75 µM ([2]; Well no.=6659) of 98.7%.

In the case of `N[C@@H](Cc1cc(I)c(Oc2cc(I)c(O)c(I)c2)c(I)c1)C(=O)O` [L-thyroxine], the remaining activity at 1.25 µM ([1]; Well no.=2298) is reported as 86.3%, the remaining activity at 1.25 µM ([1]; Well no.=7299) is reported as 102% and the remaining activity at 3.75 µM ([2]; Well no.=2298) is reported as 88.2%. It also gave a remaining activity at 3.75 µM ([2]; Well no.=7299) of 105%.

For `O=C1Cc2c([nH]c3ccc(Br)cc23)-c2ncccc2N1` [1-Azakenpaullone], the remaining activity at 1.25 µM ([1]; Well no.=2335) was 96.4% and the remaining activity at 3.75 µM ([2]; Well no.=2335) was 97.1%.

Molecule `COc1cc2nc(N3CCN(C(=O)C4CCCO4)CC3)nc(N)c2cc1OC` (stereo not shown) [Terazosin] has a remaining activity at 1.25 µM ([1]; Well no.=2301) of 90.8% and a remaining activity at 3.75 µM ([2]; Well no.=2301) of 89.8%.

Work on `Cc1cc2ncc(-c3ccccc3)nc2cc1C` [AG 1295] yielded a remaining activity at 1.25 µM ([1]; Well no.=2611) of 97.5% and a remaining activity at 3.75 µM ([2]; Well no.=2611) of 97.7%.

`N#C/C(=C(/N)Sc1ccc(N)cc1)c1ccccc1C(F)(F)F` [MEK1/2 Inhibitor] gave a remaining activity at 1.25 µM ([1]; Well no.=2562) of 94.4% and a remaining activity at 3.75 µM ([2]; Well no.=2562) of 96.8%.

Work on `CCCCCC(O)c1cccc(OCc2ccc3ccccc3n2)c1` (stereo not shown) [REV 5901] yielded a remaining activity at 1.25 µM ([1]; Well no.=1158) of 104% and a remaining activity at 3.75 µM ([2]; Well no.=1158) of 101%.

In the case of `O=C(O)CCc1ccc(NCc2cccc(Oc3ccccc3)c2)cc1` [GW9508], the remaining activity at 1.25 µM ([1]; Well no.=5182) is reported as 103%, the remaining activity at 1.25 µM ([1]; Well no.=8531) is reported as 97.9% and the remaining activity at 3.75 µM ([2]; Well no.=5182) is reported as 99.8%. It also gave a remaining activity at 3.75 µM ([2]; Well no.=8531) of 98.8%.

In the case of `OC1CCCCC1N1CCC(c2ccccc2)CC1` (racemic), the remaining activity at 1.25 µM ([1]; Well no.=1290) is reported as 101% and the remaining activity at 3.75 µM ([2]; Well no.=1290) is reported as 97.9%.

Molecule `C=CCCCCCCCCCC(=O)O` [11-Dodecenoic acid] has a remaining activity at 1.25 µM ([1]; Well no.=4258) of 98.8% and a remaining activity at 3.75 µM ([2]; Well no.=4258) of 96.7%.

In the case of `CC(C)[C@H]1CN[C@H](C(=O)O)[C@H]1CC(=O)O` [Dihydrokainic acid], the remaining activity at 1.25 µM ([1]; Well no.=635) is reported as 93.4% and the remaining activity at 3.75 µM ([2]; Well no.=635) is reported as 94%.

Molecule `C#C[C@]1(O)CC[C@H]2[C@@H]3CCC4=CC(=O)CC[C@]4(C)[C@H]3CC[C@@]21C` [Ethisterone] has a remaining activity at 1.25 µM ([1]; Well no.=2030) of 101% and a remaining activity at 3.75 µM ([2]; Well no.=2030) of 101%.

Work on `NNC(=O)c1ccc(O)cc1` [4-Hydroxybenzhydrazide] yielded a remaining activity at 1.25 µM ([1]; Well no.=426) of 97.3% and a remaining activity at 3.75 µM ([2]; Well no.=426) of 97%.

`CCOC(OCC)P(=O)(O)CCCNCc1ccc(Cl)c(Cl)c1` [3-[(3,4-dichlorobenzyl)amino]propyl(diethoxymethyl)phosphinic acid] showed a remaining activity at 1.25 µM ([1]; Well no.=6020) of 98.7% and a remaining activity at 3.75 µM ([2]; Well no.=6020) of 93.6%.

With `C[C@]12C=CC(=O)C=C1CC[C@@H]1C2=CC[C@]2(C)[C@@H](C(=O)CN3CCN(c4cc(N5CCCC5)nc(N5CCCC5)n4)CC3)CC[C@@H]12` [U74389G maleate] the remaining activity at 1.25 µM ([1]; Well no.=3905) was 103% and the remaining activity at 3.75 µM ([2]; Well no.=3905) was 98.2%.
